In US12178840B2, “Method and compositions comprising a CT20 peptide” (UNIVERSITY OF CENTRAL FLORIDA RESEARCH FOUNDATION, INC., priority 2014, dated 2024):
Residues, ends and D or L forms follow the SMILES beside them.

Columns and labels:
Format in all cases: cell-based, human
BT-549 cells = test: Cellular adhesion assay (fibronectin, crystal violet); settings: 48 hours, varying doses
Method: (§1) Cellular adhesion assay: 96-well tissue culture plates were coated with 20 ug/mL fibronectin (Sigma) overnight at 4° C. Cells were then seeded in the plates at a density of 10,000 cells/well. Cells were treated with varying doses of CT20p for 48 hours. Plates were then shaken at 1400 rpm for 15 seconds, washed, and fixed with 10% neutral buffered formalin (Leica). Adhered cells were stained with 5 mg/mL crystal violet (Sigma) and absorbance at 595 nm was read on an EnVision plate reader (Perkin Elmer).
(§2) The effect of CT20p was examined on a panel of cell lines by measuring the impact on cellular adhesion. Metastatic cells vary their adhesion patterns as dictated by their environment (Cheung and Ewald 2014), and targeting adhesion ability could mitigate metastasis. To examine the cell lines, plates were coated with fibronectin to provide an appropriate substrate for adhesion, and cells were treated with CT20p for 48 hours at varying doses (FIG. 5A). […] Treating at this dose would allow us to observe the molecular effects of the peptide prior to cell death.

MDA-MB-436 cells = test: as above; settings: 48 hours, varying doses
Method: as §1, §2

MCF-10A cells = test: as above
Method: as §1, §2

MDA-MB-231 cells = test: as above; settings: 48 hours, varying doses
Method: as §1, §2

[1] = tested on: cells isolated from paired normal tissue; test: Lethality in cells isolated from paired normal tissue; settings: CT20 peptide in HBPE-NPs
Source text: 40× magnification. CCTβ was detected in invasive breast cancer.
The lethality of CT20 was also examined in cells isolated from primary breast tumors and paired normal tissue. […] To this end, the levels of CCTβ were examined in a pilot tissue array of breast cancer tissue cores by immunohistochemistry (IHC) and detected CCTβ in invasive breast cancer (FIG. 14B).

tubulin in MCF-10A cells = test: Fixed cell immunofluorescence of tubulin; settings: 24 hours of CT20p treatment
Method: Fixed cell immunofluorescence: Cells were seeded on glass coverslips (Fisher) in a 6-well plate at a density of 150,000 cells/well. Cells at 60% confluency were treated with CT20p or left untreated for 24 hours. After CT20p treatment, cells were stained with Mitotracker Red CMXRos (Life Technologies) at a concentration of 200 nM for 30 minutes, before being fixed in ice cold methanol for 10 minutes at −20° C. Cells were then permeabilized in 0.1% Triton X-100 for 10 minutes at 37° C. Samples were blocked in 5% normal goat serum (Santa Cruz) for 30 minutes at 37° C., then incubated with primary antibody α-tubulin (DM1A) (Santa Cruz) for 3 hours at 37° C. Secondary antibody was goat α-mouse IgG-FITC (Santa Cruz) and was applied for 1 hour at room temperature. Coverslips were mounted in UltraCruz mounting media (Santa Cruz), which contains DAPI for nuclear staining. Images were obtained with a Zeiss LSM 710 microscope, using a Zeiss 63× Pan-Apocromat oil immersion lens and Zeiss Zen software. To determine average tubulin levels per cell, the amount of FITC fluorescence intensity per region of interest was divided by the number of cells in the field. At least four images containing between 5 and 12 cells were quantified for each condition. Image analysis was done using Volocity software (Perkin Elmer). […]

With `CC[C@H](C)[C@H](NC(=O)[C@@H](NC(=O)[C@H](CC(C)C)NC(=O)[C@H](CO)NC(=O)[C@H](C)NC(=O)[C@@H](NC(=O)[C@H](CC(C)C)NC(=O)[C@@H](NC(=O)CNC(=O)[C@H](C)NC(=O)[C@@H](NC(=O)[C@H](Cc1ccccc1)NC(=O)[C@@H](NC(=O)[C@@H](NC(=O)[C@@H](NC(C)=O)C(C)C)[C@@H](C)O)[C@@H](C)CC)C(C)C)C(C)C)[C@@H](C)O)[C@@H](C)O)C(=O)N[C@@H](Cc1c[nH]c2ccccc12)C(=O)N[C@@H](CCCCN)C(=O)N[C@@H](CCCCN)C(=O)N[C@@H](CCSC)C(=O)NCC(N)=O` [CT20] (Ac-VTIFVAGVLTASLTIWKKMG-NH2) the “Effect on cellular adhesion” value (BT-549 cells) was “particularly unaffected”, the “Effect on cellular adhesion” value (MDA-MB-436 cells) was “dose-dependent loss of adhesion” and the Detachment of cells (MCF-10A cells; 75 μg/mL of CT20p) was “does not cause detachment”. The “Effect on cellular adhesion” value (MCF-10A cells; 48 hours, varying doses, fibronectin) was “particularly unaffected”, the “Effect on cellular adhesion” value (MDA-MB-231 cells) was “dose-dependent loss of adhesion” and the Lethality [1] was “not the normal cells”. The “Amount of tubulin per cell” value (tubulin in MCF-10A cells) was “no significant loss”.
